The experiment relates to Wistar rats. Nature of the experiment: hypoglycaemic activity in 18 hour fasted Wistar rats. It is filed as in vivo. As for the experimental part:
The compound was evaluated for hypoglycaemic activity in 18 hour fasted Wistar rats. […] The mean fall recorded was 24 mg/100 ml blood, from an initial mean of 91 to mean of 67 mg/100 ml blood.

Take `CCCNC(=O)NS(=O)(=O)c1ccc(Cl)cc1` [chlorpropamide, reference compound]: the mean fall (positive control, dose not given) was 18 mg/100 ml of blood.
Consider `OC[C@H]1O[C@@H](c2c(O)ccc3cc(Cc4ccc(O)cc4)oc23)[C@H](O)[C@@H](O)[C@@H]1O` [formula 1, 6-hydroxy-2-p-hydroxybenzylbenzofuran-7-C-β-D-glucopyranoside], for which, for the setting “dose of 15 mg/kg p.o.”, the hypoglycaemic effect entry is reported as “hypoglycaemic effect was recorded in all the treated rats”. Also, the “mean (after treatment)” value (dose of 15 mg/kg p.o., from an initial mean of 91) is given as 67 mg/100 ml blood. Also, the mean fall (dose of 15 mg/kg p.o., initial mean of 91 mg/100 ml blood) was 24 mg/100 ml blood.

These data come from patent EP1495019B1, “GLUCOPYRANOSIDE, PROCESS FOR ISOLATION THEREOF, PHARMACEUTICAL COMPOSITION CONTAINING SAME AND USE THEREOF” (COUNCIL OF SCIENTIFIC AND INDUSTRIAL RESEARCH, priority 2002, dated 2003).
